The target of one assay is Aurora B (Homo sapiens, UniProt Q96GD4). Kind of assay: Kinase panel (140 human kinases). Type of assay: biochemical. The method in brief: (§1)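 Radioactive [γ-^33P]ATP filter-binding assay, run in duplicate; compounds tested at 0.1 μM and at 1 μM (BAY-3827). ATP at 5, 20 or 50 μM, chosen at or below each enzyme's Km for ATP. Values are mean remaining kinase activity (%) with SD.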

In a further assay the target is EIF2AK3 (Homo sapiens, UniProt Q9NZJ5). As to the kind of experiment: Kinase panel (140 human kinases). The assay is classed as biochemical. An outline of the steps: as §1
The target in the next assay is Lck (Homo sapiens, UniProt P06239). As to the kind of experiment: Kinase panel (140 human kinases). Type of assay: biochemical. An outline of the steps:
as §1

A further assay concerns the target MARK3 (Homo sapiens, UniProt P27448). As to the kind of experiment: Kinase panel (140 human kinases). Type of assay: biochemical. The method in brief: as §1
A further assay addresses MINK1 (Homo sapiens, UniProt Q8N4C8). As to the kind of experiment: Kinase panel (140 human kinases). The assay is classed as biochemical. The method in brief:
as §1

In a further assay the target is MNK1 (Homo sapiens, UniProt Q9BUB5). As to the kind of experiment: Kinase panel (140 human kinases). Type of assay: biochemical. An outline of the steps:
as §1

Another assay has as its target MST4 (Homo sapiens, UniProt Q9P289). As to the kind of experiment: Kinase panel (140 human kinases). Type of assay: biochemical. An outline of the steps:
as §1

The target in another assay is PAK4 (Homo sapiens, UniProt O96013). As to the kind of experiment: Kinase panel (140 human kinases). The assay is classed as biochemical. The method in brief: as §1
PAK4, sequence (O96013 whole entry): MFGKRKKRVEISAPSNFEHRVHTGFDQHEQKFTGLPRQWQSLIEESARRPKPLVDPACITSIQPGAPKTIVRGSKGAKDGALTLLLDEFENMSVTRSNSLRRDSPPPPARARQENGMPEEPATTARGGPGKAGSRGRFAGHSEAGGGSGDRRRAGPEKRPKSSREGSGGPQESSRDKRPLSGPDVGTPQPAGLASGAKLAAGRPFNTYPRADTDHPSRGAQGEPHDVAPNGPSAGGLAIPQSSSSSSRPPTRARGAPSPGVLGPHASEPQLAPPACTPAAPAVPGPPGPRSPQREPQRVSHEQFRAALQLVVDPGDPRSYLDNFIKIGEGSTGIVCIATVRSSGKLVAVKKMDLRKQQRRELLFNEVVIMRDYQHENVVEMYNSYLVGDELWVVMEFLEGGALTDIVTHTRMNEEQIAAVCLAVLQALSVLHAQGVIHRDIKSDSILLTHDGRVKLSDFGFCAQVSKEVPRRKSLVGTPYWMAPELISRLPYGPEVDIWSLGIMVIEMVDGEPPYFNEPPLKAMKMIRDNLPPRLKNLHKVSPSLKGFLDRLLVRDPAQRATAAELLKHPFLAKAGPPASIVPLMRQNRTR
The next assay concerns the target PKA (Homo sapiens, UniProt P17612). Kind of assay: Kinase panel (140 human kinases). The assay is classed as biochemical. The method in brief: as §1
The target of a further assay is PRAK (Homo sapiens, UniProt Q8IW41). Kind of assay: Kinase panel (140 human kinases). Type of assay: biochemical. The method in brief: as §1
PRAK, sequence (Q8IW41 whole entry): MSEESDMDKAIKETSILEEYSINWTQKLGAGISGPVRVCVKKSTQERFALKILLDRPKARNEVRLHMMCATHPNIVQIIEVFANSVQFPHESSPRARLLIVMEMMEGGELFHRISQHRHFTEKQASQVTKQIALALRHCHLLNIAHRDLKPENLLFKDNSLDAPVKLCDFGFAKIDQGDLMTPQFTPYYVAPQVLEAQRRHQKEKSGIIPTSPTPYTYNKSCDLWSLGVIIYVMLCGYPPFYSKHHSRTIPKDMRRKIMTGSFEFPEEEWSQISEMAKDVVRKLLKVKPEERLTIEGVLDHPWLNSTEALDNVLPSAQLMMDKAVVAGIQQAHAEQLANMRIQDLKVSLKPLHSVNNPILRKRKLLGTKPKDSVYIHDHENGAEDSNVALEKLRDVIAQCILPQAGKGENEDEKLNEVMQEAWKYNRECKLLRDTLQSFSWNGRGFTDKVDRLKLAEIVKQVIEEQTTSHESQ
The target in another assay is SIK3 (Homo sapiens, UniProt Q9Y2K2). Kind of assay: Kinase panel (140 human kinases). The assay is classed as biochemical. The method in brief:
as §1

The target of a further assay is TTBK2 (Homo sapiens, UniProt Q6IQ55). Kind of assay: Kinase panel (140 human kinases). The assay is classed as biochemical. An outline of the steps: as §1
Another assay concerns mouse primary adipocytes. As to the kind of experiment: Immunoblot of signaling in primary adipocytes. Type of assay: cell-based. The procedure: Epidydimal adipose tissue excised from mice was digested with collagenase (1 mg/ml) in Krebs-Ringer medium (120 mM NaCl, 4.7 mM KCl, 1.2 mM KH2PO4, and 1.2 mM MgSO4) containing 25 mM Hepes (pH 7.4), 200 nM adenosine, 2 mM glucose, and 3% (w/v) bovine serum albumin (BSA) (KRH buffer) at 37°C in a shaking incubator. Adipocytes were isolated by filtering and washing in KRH buffer. For preparation of protein extracts for Western blot, adipocyte suspensions [0.7 to 1 ml of 10% (v/v) cells] were preincubated with BAY-3827 or BAY-974 compounds or 0.1% DMSO for 1 hour at 37°C in a shaking (80 rpm) water bath followed by either 1 hour of incubation with 10 μM MK-8722 or 30 min with 0.1 nM insulin (Novo Nordisk) in KRH buffer, as indicated in the figure legends. […] Lysates were centrifuged at 13,000g for 15 min (4°C), and supernatant protein concentration was determined by the Bradford assay. […]
For adipocyte experiments, cell lysates (25 μg protein) were heated at 95°C for 3 min in LDS sample buffer, subjected to polyacrylamide gel electrophoresis on precast Novex gradient gels (Thermo Fisher Scientific) and electrotransferred to nitrocellulose membranes. […] Luminescence signals were visualized in a ChemiDoc XRS+ (Bio-Rad) and quantified by densitometry using the software Image LabTM 5.1 (Bio-Rad). […]

Aurora B, sequence (Q96GD4 whole entry): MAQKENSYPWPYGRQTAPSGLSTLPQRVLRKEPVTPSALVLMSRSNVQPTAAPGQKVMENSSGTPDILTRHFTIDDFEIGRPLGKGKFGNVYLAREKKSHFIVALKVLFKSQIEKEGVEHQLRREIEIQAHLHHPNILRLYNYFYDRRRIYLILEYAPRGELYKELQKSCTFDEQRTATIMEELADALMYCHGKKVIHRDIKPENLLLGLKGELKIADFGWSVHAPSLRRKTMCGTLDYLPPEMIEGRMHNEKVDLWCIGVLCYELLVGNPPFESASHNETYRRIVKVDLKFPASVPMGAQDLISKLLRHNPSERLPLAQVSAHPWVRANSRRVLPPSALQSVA
MINK1, sequence (Q8N4C8 whole entry): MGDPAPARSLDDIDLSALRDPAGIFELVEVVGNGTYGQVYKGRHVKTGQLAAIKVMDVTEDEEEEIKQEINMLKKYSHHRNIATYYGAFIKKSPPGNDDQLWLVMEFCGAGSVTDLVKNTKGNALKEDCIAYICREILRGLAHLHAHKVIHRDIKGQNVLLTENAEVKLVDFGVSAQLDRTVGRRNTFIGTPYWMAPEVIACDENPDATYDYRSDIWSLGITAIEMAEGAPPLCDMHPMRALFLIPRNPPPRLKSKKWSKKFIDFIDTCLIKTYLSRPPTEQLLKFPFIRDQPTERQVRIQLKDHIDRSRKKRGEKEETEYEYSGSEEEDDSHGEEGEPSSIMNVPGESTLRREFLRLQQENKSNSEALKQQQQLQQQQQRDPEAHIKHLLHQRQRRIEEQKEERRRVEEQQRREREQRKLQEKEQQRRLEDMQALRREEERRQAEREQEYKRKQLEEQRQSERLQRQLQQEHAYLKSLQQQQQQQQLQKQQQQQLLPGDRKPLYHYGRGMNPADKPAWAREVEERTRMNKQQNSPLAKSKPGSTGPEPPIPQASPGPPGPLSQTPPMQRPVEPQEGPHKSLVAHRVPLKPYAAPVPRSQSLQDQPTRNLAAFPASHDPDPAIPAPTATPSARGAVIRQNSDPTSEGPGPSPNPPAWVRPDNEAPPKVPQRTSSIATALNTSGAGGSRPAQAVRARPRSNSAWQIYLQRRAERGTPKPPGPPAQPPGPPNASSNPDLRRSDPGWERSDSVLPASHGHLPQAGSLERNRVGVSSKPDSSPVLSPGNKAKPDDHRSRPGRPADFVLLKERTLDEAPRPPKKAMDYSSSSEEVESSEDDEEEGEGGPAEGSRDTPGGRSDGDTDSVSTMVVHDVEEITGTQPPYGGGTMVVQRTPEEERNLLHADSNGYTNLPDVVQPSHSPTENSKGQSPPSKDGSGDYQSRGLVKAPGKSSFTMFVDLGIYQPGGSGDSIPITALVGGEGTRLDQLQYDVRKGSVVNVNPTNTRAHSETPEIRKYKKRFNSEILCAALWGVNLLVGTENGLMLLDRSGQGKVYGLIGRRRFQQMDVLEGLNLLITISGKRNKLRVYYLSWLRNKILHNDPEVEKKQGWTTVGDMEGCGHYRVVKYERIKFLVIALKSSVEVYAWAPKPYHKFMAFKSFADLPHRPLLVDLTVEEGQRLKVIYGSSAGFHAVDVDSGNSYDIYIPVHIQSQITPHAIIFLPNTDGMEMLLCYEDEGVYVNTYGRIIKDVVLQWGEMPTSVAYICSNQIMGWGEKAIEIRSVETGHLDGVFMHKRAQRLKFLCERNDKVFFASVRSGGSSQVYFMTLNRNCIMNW
MARK3, sequence (P27448 whole entry): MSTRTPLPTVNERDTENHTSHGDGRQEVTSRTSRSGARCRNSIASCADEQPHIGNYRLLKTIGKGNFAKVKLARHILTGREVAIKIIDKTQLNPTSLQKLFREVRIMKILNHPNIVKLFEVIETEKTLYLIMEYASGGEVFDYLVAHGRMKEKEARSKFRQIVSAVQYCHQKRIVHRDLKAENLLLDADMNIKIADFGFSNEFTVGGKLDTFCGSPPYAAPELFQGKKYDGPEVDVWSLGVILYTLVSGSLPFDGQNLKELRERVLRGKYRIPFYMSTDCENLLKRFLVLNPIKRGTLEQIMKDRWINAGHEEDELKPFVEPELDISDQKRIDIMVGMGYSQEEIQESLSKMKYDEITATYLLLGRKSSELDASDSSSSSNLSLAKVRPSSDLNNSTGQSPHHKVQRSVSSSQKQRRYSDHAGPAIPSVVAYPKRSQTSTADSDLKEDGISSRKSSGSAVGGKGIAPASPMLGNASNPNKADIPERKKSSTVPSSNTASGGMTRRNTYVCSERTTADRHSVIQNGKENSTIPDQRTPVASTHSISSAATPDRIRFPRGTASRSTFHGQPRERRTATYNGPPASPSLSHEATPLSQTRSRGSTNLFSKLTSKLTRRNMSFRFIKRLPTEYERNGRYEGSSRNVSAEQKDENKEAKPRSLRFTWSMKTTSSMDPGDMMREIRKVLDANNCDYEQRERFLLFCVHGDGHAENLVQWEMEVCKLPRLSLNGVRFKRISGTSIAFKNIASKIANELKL
Lck, sequence (P06239 whole entry): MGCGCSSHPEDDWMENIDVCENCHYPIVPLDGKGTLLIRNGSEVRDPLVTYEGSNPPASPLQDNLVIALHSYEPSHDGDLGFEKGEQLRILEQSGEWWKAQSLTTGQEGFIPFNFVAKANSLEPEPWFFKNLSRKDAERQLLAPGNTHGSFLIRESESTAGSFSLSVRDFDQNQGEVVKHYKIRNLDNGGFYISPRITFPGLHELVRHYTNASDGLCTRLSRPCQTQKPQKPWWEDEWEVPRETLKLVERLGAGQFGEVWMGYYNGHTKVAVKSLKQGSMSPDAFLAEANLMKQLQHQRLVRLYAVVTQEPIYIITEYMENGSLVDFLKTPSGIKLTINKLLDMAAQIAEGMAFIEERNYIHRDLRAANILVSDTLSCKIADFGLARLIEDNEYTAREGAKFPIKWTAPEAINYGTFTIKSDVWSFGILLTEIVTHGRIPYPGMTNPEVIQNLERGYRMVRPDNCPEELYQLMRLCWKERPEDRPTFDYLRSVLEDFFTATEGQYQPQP
MST4, sequence (Q9P289 whole entry): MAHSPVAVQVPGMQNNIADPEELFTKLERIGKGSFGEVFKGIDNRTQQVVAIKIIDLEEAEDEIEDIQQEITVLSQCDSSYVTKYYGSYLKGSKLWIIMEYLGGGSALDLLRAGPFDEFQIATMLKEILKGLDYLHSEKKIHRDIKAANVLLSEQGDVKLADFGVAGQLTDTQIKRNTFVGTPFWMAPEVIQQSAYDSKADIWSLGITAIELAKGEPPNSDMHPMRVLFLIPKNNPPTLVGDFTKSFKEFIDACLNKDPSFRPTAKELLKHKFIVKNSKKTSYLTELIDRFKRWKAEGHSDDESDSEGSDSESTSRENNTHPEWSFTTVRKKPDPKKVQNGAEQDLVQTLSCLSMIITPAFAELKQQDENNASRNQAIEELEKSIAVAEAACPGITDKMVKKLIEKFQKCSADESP
MNK1, sequence (Q9BUB5 whole entry): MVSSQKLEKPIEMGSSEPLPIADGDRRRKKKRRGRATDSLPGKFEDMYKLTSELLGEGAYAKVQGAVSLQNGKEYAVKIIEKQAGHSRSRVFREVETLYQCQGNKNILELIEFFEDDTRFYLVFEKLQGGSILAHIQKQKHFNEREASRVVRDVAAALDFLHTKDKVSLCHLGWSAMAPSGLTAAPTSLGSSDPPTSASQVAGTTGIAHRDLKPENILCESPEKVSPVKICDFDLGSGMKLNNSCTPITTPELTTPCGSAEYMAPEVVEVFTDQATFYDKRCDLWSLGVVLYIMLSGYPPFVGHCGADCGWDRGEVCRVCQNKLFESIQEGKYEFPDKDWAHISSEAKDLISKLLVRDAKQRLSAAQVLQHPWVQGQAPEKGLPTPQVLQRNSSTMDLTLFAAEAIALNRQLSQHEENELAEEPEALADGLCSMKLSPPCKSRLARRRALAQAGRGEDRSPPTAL

Take `CC1=C(C#N)C(c2ccc3c(c2)c(NC(=O)c2ccccc2C)nn3C)C(C#N)=C(C)N1` [BAY-974, N-[5-(3,5-dicyano-2,6-dimethyl-1,4-dihydropyridin-4-yl)-1-methylindazol-3-yl]-2-methylbenzamide]: the remaining activity at 0.1 µM on Aurora B is 62%; on EIF2AK3 it was 113%; at Lck, 58%; at MARK3 it was 80%; on MINK1, 79%; on MNK1, 100%. In addition, the remaining activity at 0.1 µM amounted to 98% at MST4; 96% at PAK4; 103% at PKA; 107% on PRAK; 81% at SIK3; 91% at TTBK2.

On to `CCc1ccccc1C(=O)Nc1n[nH]c2c(C)c(F)c(C3C(C#N)=C(C)N(C)C(C)=C3C#N)cc12` [BAY-3827, N-[5-(3,5-dicyano-1,2,6-trimethyl-4H-pyridin-4-yl)-6-fluoro-7-methyl-1H-indazol-3-yl]-2-ethylbenzamide], for which the inhibition at 0.1 µM at Aurora B and against MINK1 was roughly 60% each time. In addition, the remaining activity at 0.1 µM was no more than 50% on Aurora B; 98% at EIF2AK3; 93% on Lck; 98% at MARK3; no more than 50% on MINK1; 126% on MNK1. In addition, the remaining activity at 0.1 µM on MST4 came out at 64%; at PAK4, 80%; on PKA, 94%; at PRAK, 101%; on SIK3 it was 99%; on TTBK2 it was 93%. Further, the “basal and insulin-stimulated phosphorylation of Akt and TBC1D4” value with mouse primary adipocytes (10 μM) was “not significantly affected”. For the same compound, in the assay with mouse primary adipocytes (varying doses, irrespective of MK-8722), the Raptor phosphorylation result is “dose-dependent reduction”.
